Measured values taken from patent publication US20230072683A1, “PYRIDO-PYRIMIDIN DERIVATIVES AND PHARMACEUTICAL COMPOSITION, FOR USE IN PREVENTING OR TREATING PI3 KINASE RELATED DISEASES, COMPRISING SAME AS ACTIVE INGREDIENT” (BORYUNG PHARMACEUTICAL CO., LTD, priority 2019, published 2023).

Columns and labels:
[1] = target: PI3K-δ (PI3K(p1108/p857) (h)) (Homo sapiens, UniProt O00329); assay: Evaluation of inhibitory activity against PI3K-δ (HTRF kinase assay); format: biochemical; details: compound concentration 0.01 μM; read-out: EXP_VALUE(% Inhibition) PI3K-δ 0.01 μM
In short: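 HTRF read-out (665/620 nm ratio ×10000) used Eu-labelled anti-GST, GST-tagged GRP1 PH domain and streptavidin-allophycocyanin after EDTA/PIP3 stop.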

DNA-PK(h) = DNA-PK(h) (Homo sapiens, UniProt P78527); assay: Evaluation of inhibitory activity against DNA-PK (HTRF kinase assay, GST-cMyc-p53 substrate); format: biochemical; details: compound concentration 0.01 μM; read-out: EXP_VALUE(% Inhibition) DNA-PK(h) 0.01 μM
In short: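 Human DNA-PK with 50 μM GST-cMyc-p53 substrate; reaction started with Mg/ATP, run 30 min at room temperature, stopped with EDTA. Phospho-Ser15 p53 detected by HTRF (Eu anti-phospho-Ser15, d2 anti-GST), signal = 10000×(Em 665/Em 620).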

Chain of PI3K-δ (PI3K(p1108/p857) (h)) (O00329 whole entry, the tested form may be a part): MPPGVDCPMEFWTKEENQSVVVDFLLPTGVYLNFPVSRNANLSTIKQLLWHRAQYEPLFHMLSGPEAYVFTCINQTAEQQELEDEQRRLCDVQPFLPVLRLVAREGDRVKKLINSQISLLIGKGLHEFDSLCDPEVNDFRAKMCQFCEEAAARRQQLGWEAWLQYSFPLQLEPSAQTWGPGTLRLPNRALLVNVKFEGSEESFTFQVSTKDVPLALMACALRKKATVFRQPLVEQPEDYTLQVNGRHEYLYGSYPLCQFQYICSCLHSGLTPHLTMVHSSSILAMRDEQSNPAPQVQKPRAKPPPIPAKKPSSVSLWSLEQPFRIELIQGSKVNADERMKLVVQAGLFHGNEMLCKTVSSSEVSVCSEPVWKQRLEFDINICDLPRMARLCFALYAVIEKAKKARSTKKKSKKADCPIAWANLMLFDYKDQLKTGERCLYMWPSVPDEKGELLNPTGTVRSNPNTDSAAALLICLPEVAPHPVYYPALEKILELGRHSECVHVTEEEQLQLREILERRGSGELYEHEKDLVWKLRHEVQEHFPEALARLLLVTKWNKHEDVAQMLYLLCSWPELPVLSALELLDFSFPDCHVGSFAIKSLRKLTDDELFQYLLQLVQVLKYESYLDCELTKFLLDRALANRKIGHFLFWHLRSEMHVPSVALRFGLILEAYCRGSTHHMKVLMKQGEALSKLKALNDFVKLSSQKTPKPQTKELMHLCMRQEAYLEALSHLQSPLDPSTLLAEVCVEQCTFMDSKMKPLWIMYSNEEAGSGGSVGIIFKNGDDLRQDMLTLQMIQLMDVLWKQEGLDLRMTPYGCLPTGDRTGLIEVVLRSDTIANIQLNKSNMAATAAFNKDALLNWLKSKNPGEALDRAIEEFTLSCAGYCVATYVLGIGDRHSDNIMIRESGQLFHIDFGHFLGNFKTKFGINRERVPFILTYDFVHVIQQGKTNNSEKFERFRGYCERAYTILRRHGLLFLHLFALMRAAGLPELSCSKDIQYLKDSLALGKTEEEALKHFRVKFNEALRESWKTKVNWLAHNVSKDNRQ
Chain of PI3K-δ (PI3K(p1108/p857) (h)) (P27986 whole entry partner, the tested form may be a part): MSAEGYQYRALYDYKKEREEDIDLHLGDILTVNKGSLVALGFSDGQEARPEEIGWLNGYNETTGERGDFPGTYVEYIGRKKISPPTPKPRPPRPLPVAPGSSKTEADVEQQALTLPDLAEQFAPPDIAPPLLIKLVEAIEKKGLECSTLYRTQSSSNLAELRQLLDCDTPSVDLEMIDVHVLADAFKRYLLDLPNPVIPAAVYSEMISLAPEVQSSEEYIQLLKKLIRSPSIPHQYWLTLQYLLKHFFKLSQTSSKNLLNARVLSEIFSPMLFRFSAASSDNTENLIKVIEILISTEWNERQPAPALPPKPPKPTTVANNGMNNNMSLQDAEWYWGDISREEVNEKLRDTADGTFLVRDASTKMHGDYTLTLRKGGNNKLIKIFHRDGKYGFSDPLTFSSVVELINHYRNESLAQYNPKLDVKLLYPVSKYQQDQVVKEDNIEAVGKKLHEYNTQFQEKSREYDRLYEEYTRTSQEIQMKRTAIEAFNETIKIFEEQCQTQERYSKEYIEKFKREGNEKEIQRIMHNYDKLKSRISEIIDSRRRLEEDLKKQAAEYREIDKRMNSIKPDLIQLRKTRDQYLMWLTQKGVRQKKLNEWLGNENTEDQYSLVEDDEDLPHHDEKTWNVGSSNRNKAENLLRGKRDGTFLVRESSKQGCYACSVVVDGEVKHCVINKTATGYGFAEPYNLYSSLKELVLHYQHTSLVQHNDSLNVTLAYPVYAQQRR

| SMILES | inhibition at 0.01 µM [1] | inhibition at 0.01 µM (DNA-PK(h)) |
| --- | --- | --- |
| CC(C)Oc1ncc(-c2cccc3c(Cl)c([C@H](C)Nc4ncnc5[nH]ccc(=O)c45)n(-c4ccccc4)c(=O)c23)cn1 [Example 182, (S)-4-((1-(4-chloro-8-(2-isopropoxypyrimidin-5-yl)-1-oxo-2-phenyl-1,2-dihydroisoquinolin-3-yl)ethyl)amino)pyrido[2,3-d]pyrimidin-5(8H)-one] | 85% | 64% |
| CCOc1ccc(-c2cccc3c(Cl)c([C@H](C)Nc4ncnc5[nH]ccc(=O)c45)n(-c4ccccc4)c(=O)c23)cn1 [Example 183, (S)-4-((1-(4-chloro-8-(6-ethoxypyridin-3-yl)-1-oxo-2-phenyl-1,2-dihydroisoquinolin-3-yl)ethyl)amino)pyrido[2,3-d]pyrimidin-5(8H)-one] | 85% | 68% |
| C[C@H](Nc1ncnc2[nH]ccc(=O)c12)c1c(Cl)c2cccc(-c3cnc(OCC(F)(F)F)nc3)c2c(=O)n1-c1ccccc1 [Example 184, (S)-4-((1-(4-chloro-1-oxo-2-phenyl-8-(2-(2,2,2-trifluoroethoxy)pyrimidin-5-yl)-1,2-dihydroisoquinolin-3-yl)ethyl)amino)pyrido[2,3-d]pyrimidin-5(8H)-one] | 78% | 38% |
| C[C@H](Nc1ncnc2[nH]ccc(=O)c12)c1c(Cl)c2cccc(-c3ccc(Oc4ccccc4)nc3)c2c(=O)n1-c1ccccc1 [Example 185, (S)-4-((1-(4-chloro-1-oxo-8-(6-phenoxypyridin-3-yl)-2-phenyl-1,2-dihydroisoquinolin-3-yl)ethyl)amino)pyrido[2,3-d]pyrimidin-5(8H)-one] | 95% | 33% |
| COc1ncc(-c2cccc3c(Cl)c([C@H](C)Nc4ncnc5[nH]ccc(=O)c45)n(-c4ccccc4)c(=O)c23)cc1F [Example 186, (S)-4-((1-(4-chloro-8-(5-fluoro-6-methoxypyridin-3-yl)-1-oxo-2-phenyl-1,2-dihydroisoquinolin-3-yl)ethyl)amino)pyrido[2,3-d]pyrimidin-5(8H)-one] | 94% | 49% |
| COc1ncc(-c2cccc3c(Cl)c([C@H](C)Nc4ncnc5[nH]ccc(=O)c45)n(-c4ccccc4)c(=O)c23)cc1Cl [Example 187, (S)-4-((1-(4-chloro-8-(5-chloro-6-methoxypyridin-3-yl)-1-oxo-2-phenyl-1,2-dihydroisoquinolin-3-yl)ethyl)amino)pyrido[2,3-d]pyrimidin-5(8H)-one] | 79% | 45% |
| CCOc1ncc(-c2cccc3c(Cl)c([C@H](C)Nc4ncnc5[nH]ccc(=O)c45)n(-c4ccccc4)c(=O)c23)cn1 [Example 188, (S)-4-((1-(4-chloro-8-(2-ethoxypyrimidin-5-yl)-1-oxo-2-phenyl-1,2-dihydroisoquinolin-3-yl)ethyl)amino)pyrido[2,3-d]pyrimidin-5(8H)-one] | 101% | 67% |
| C[C@H](Nc1ncnc2[nH]ccc(=O)c12)c1c(Cl)c2cccc(-c3ccnc(N4CCOCC4)c3)c2c(=O)n1-c1ccccc1 [Example 190, (S)-4-((1-(4-chloro-8-(2-morpholinopyridin-4-yl)-1-oxo-2-phenyl-1,2-dihydroisoquinolin-3-yl)ethyl)amino)pyrido[2,3-d]pyrimidin-5(8H)-one] | 87% | 85% |
| COc1ccc(-c2cccc3c(Cl)c([C@H](C)Nc4ncnc5[nH]ccc(=O)c45)n(-c4ccccc4)c(=O)c23)cc1F [Example 191, (S)-4-((1-(4-chloro-8-(3-fluoro-4-methoxyphenyl)-1-oxo-2-phenyl-1,2-dihydroisoquinolin-3-yl)ethyl)amino)pyrido[2,3-d]pyrimidin-5(8H)-one] | 85% | 102% |
